# Laboratory results published in ChEMBL document CHEMBL5046258, “Anti-inflammatory Dimeric Benzophenones from an Endophytic Pleosporales Species” (J Nat Prod, 2022).
# System: RAW264.7
# Assay: Antiinflammatory activity in mouse RAW 264.7 cells assessed as inhibition of LPS-induced nitric oxide production measured after 24 hrs by Griess reagent assay
# Format: functional, cell-based
# Conditions: RAW264.7, 24 h
row,SMILES,IC50
1,Cc1cc2c(C)cc(O)cc2c(=O)o1,46.1 µM
2,COc1cc(O)c(C(=O)c2c(C)cc(O)cc2OC)c(O)c1,35.1 µM
3,COc1cc(C)c(C(=O)c2c(O)cc(OC)cc2O[C@@H]2O[C@H](CO)[C@@H](O)[C@H](O)[C@H]2O)c(OC)c1,43.3 µM
4,COc1cc(C)c(C(=O)c2c(O)cc(O)cc2O)c(OC)c1,39 µM
5,COc1cc(O)c2c(=O)c3c(C)c(O)c(OC)cc3oc2c1,22.4 µM
6,COc1cc(C)c(C(=O)c2c(O)cc(OC)cc2O[C@@H]2O[C@H](CO)[C@@H](O)[C@H](O)[C@H]2O)c(O)c1,23.3 µM
7,COc1cc(O)c(C(=O)c2c(C)cc(OC)cc2OC)c(O)c1,45.2 µM
8,COc1cc(O)c(C(=O)Oc2c(C)cc(O)cc2OC)c(O)c1,49.7 µM
9,Cc1cc(O)cc2oc(=O)c3c(O)cc(O)cc3c12 [ALTERNARIOL],51.4 µM
10,COc1cc(O)c2c(c1)C1=CC(=O)C(O)=CC1(C)OC2=O (stereo unspecified) [DEHYDROALTENUSIN],39.1 µM
11,Cc1cc(O)cc2oc3cc(O)cc(O)c3c(=O)c12 [NORLICHEXANTHONE],35.2 µM

# Continued by falling IC50, values first:
row,IC50,SMILES
1,22.2 µM,C[C@@H]1C[C@H]2[C@@H]3CCC4=CC(=O)C=C[C@]4(C)[C@@]3(F)[C@@H](O)C[C@]2(C)[C@@]1(O)C(=O)CO [DEXAMETHASONE]
2,19.5 µM,COc1cc(C)c2c(=O)c3c(O)cc(OC)cc3oc2c1 [LICHEXANTHONE]
3,18.1 µM,COc1cc(C)c(C(=O)c2c(O)cc(OC)c(Cc3c(O)cc(O)cc3CC(C)=O)c2O)c(OC)c1
4,15.6 µM,COc1cc(C)c(C(=O)c2c(O)cc(OC)c(C(CCC(=O)O)c3c(OC)cc(O)c(C(=O)c4c(C)cc(OC)cc4OC)c3O)c2O)c(OC)c1
5,8.8 µM,COc1cc(C)c(C(=O)c2c(O)cc(OC)c(Cc3c(OC)cc(O)c(C(=O)c4c(C)cc(OC)cc4OC)c3O)c2O)c(OC)c1
